According to US20230141718A1, “METHODS OF TREATING GLIOBLASTOMA” (CELGENE QUANTICEL RESEARCH, INC., priority 2021, published 2023):
“Also recorded” adds a separate entry of the source.

What was measured:
Type in all cases: in vivo, human
[1] = Brain tumor tissue, plasma and CSF concentration at resection, CC-90010-GBM-001
Procedure: (§1) The primary objectives of the study in this example were determination of tumor tissue concentration and plasma pharmacokinetics (PK) of Compound A. The secondary and exploratory objectives included safety, antitumor activity, cerebrospinal fluid concentration, and pharmacodynamics (PD).
(§2) Patients were treated with Compound A at 30 mg daily on Day 1 to Day 4 prior to undergoing indicated tumor resection and to maintain platelet count above the minimum of […] recommended for surgery (Part A, preoperative treatment). Following recovery from surgery and a minimum of 4 weeks from the first dose of Compound A, subjects who were fit to continue were treated with Compound A at 45 mg on a 4 days on/24 days off schedule (180 mg per 28-day cycle). Maintenance treatment continued until disease progression, unacceptable toxicity, or withdrawal of consent.
The geometric mean peak of Compound A plasma concentration on Day 4 was 1.90 μM, and the median time to peak concentration was 1.75 hours. The median time from the day 4 dose of Compound A to resection was 23 hours (range, 4.6-31.3). […] At the time of resection, the geometric mean concentrations of Compound A in plasma and brain tumor tissue were 1.02 and 0.74 μM, respectively. Geometric mean free Compound A concentration in brain tissue was calculated to be 0.028 μM. Geometric mean Compound A concentration in CSF (cerebrospinal fluid) was 0.14 μM, and the mean CSF:plasma ratio was 0.17. None of the brain tumor tissue samples for PK analyses was confirmed to comprise homogeneous contrast-enhancing or non-enhancing tumor tissue, precluding measurement in these subgroups.
At Cycle 1 Day 4, the concentration of Compound A was measured in resected brain tumor from 20 subjects at 6 to 24-hour post dose. At the time of resection (N=19), the mean (f SDev) concentration of Compound A in plasma was 397 f 77.78 ng/mL (geometric mean: 389.23 ng/mL; coefficient of variation: 20.1%). The mean ratio of compound concentration in the resected brain tissue to compound concentration in plasma is 0.84 f 0.25 for 19 of the 20 subjects.

[2] = system: CCR1 (C-C chemokine receptor type 1) mRNA; experiment: Blood CCR1 mRNA pharmacodynamics, CC-90010-GBM-001
Procedure: as §1, §2
(§3) Blood HEXIM1 (hexamethylene bis-acetamide-inducible protein 1) mRNA was increased at 72-96 hours following first dose, and the percentage increase correlated with plasma concentration of Compound A at surgery. Tumor HEXIM1 RNA increased in 10 of 11 patients. Additionally, blood HEXIM1 mRNA expression was increased in all subjects at 72-96 hours following the first dose. Percentage HEXIM1 increase was related to plasma Compound A concentration at biopsy.

[3] = system: HEXIM1 (hexamethylene bis-acetamide-inducible protein 1) mRNA; experiment: Blood and tumor HEXIM1 mRNA pharmacodynamics, CC-90010-GBM-001
Procedure: as §1, §2, §3

[4] = system: progressive or recurrent astrocytoma or recurrent glioblastoma; experiment: Antitumor response per RANO and PFS, CC-90010-GBM-001
Description: The Response Assessment in Neuro-Oncology criteria (RANO) is used to assess response to first-line treatment of glioblastoma. See, Leao, D. J. et al., American Journal of Neuroradiology 2019, 1-11. The RANO criteria divides response into four types of response based on imaging (MRI) and clinical features: (1) complete response (CR); (2) partial response (PR); (3) stable disease (SD); and (4) progression. For this assessment, a measurable disease is defined as bidimensional contrast-enhancing lesions with clearly defined margins, with 2 perpendicular diameters of at least 10 mm, visible on ≥2 axial slices. The nonmeasurable disease is defined as either unidimensional measurable lesions, masses with margins not clearly defined as frequently noted in the surgical margins, or lesions with maximal perpendicular diameters of <10 mm.
The study described in this example (CC-90010-GBM-001 study/NCT04047303) enrolled patients with progressive or recurrent astrocytoma or recurrent glioblastoma who have failed radiation and chemotherapy, and who are candidates for surgical tumor resection as part of their salvage regimen.
as §2

CCR1 RNA = experiment: Blood CCR1 RNA pharmacodynamics, CC-90010-GBM-002; settings: for Day 4 blood CCR1 RNA downregulation: 2-4 hours post-dose
Description: The primary objectives of the study in this example were to establish the safety, maximum tolerated dose (MTD), and recommended phase 2 dose (RP2D) of Compound A. The preliminary efficacy, pharmacokinetics, and pharmacodynamics were also investigated.
The study described in this example (CC-90010-GBM-002/NCT04324840) is a phase 1B dose-finding study investigating standard of care of Compound A in combination with TMZ with or without radiotherapy (RT) in subjects with newly diagnosed GBM. Part A of the study is escalating the oral doses of Compound A in combination with adjuvant TMZ to estimate the MTD and/or the RP2D of Compound A as adjuvant therapy and escalating the oral doses of Compound A in combination with concomitant TMZ+radiotherapy (RT) to estimate the MTD and/or the RP2D of Compound A as concomitant therapy. Part B of the study is the safety and efficacy of Compound A administered at or below the MTD determined for the adjuvant therapy (AT) and concomitant therapy (CT).
The interim results for adjuvant Compound A+temozolomide are described. For adjuvant therapy, patients received Compound A at 15, 30, or 45 mg daily (4 days on/24 days off)+temozolomide administered per label for 6 cycles (150 mg/m^2 at Cycle 1 then 200 mg/m^2; QD for 5 days), followed by Compound A at 45 mg monotherapy daily (4 days on/24 days off).

Cn1cc(-c2cc(S(C)(=O)=O)ccc2OCC2CC2)c2ccccc2c1=O [Compound A, 4-[2-(cyclopropylmethoxy)-5-methylsulfonylphenyl]-2-methylisoquinolin-1-one]
geometric mean concentration in brain tumor tissue ([1]; at the time of resection): 0.74 µM
geometric mean concentration in plasma ([1]; at the time of resection): 1.02 µM
geometric mean concentration in plasma ([1]; at the time of resection (N=19)): 389.23 ng/mL
Geometric mean free concentration in brain tissue ([1]; calculated): 0.028 µM
Kp ([1]; human, brain tumor tissue, 30 mg, as stated in the comparison with other agents, read-out: brain tumor tissue:plasma ratio): 0.14
Geometric mean concentration in CSF (cerebrospinal fluid) ([1]; in vivo): 0.14 µM
mean CSF:plasma ratio ([1]; in vivo): 0.17
BBB / brain tumor tissue penetration ([1]; patients with recurrent high-grade glioma): found to penetrate the BBB and was detected in brain tumor tissue; also recorded: good tumor tissue penetration; also recorded: high brain penetrance
Blood CCR1 mRNA reduction ([2]; after Dose 4): ≥ 50%
Blood CCR1 mRNA, % of baseline ([2]; after Dose 4, standard deviation 28.5): 45.8%
CCR1 downregulation ([2]; following first and last dose of ≥30 mg, cycle 1, CC-90010-GBM-001 (FIG. 5)): ≥ 50%
Blood HEXIM1 mRNA change ([3]; 72-96 hours following first dose): increased
HEXIM1 mRNA increased in resected brain tumor tissue versus archival tissue, patients ([3]; group P=0.00093): 15 of 18
Tumor HEXIM1 RNA increased, patients ([3]; tumor): 10 of 11
PD per RANO criteria ([4]; 17 evaluable patients): 59%
stable disease per RANO criteria ([4]; 17 evaluable patients): 41%
median PFS ([4]; IDH wild-type disease, 95% CI 1.4-3.6): 3.0 months
6-month PFS rate ([4]; IDH wild-type disease, 95% CI 2.7-40.4): 16.3%
6-month PFS rate ([4]; IDH-mutant disease): 0%
median PFS ([4]; IDH-mutant disease, 95% CI 0.4-1.9): 1.2 months
Six month progression-free survival ([4]; all evaluable): 12%
Median progression-free survival (PFS) ([4]; all evaluable, 95% CI 1.4-3.3): 1.9 months
Day 4 blood CCR1 RNA downregulation (CCR1 RNA; 15-mg group): downregulated partially
Day 4 blood CCR1 RNA downregulation (CCR1 RNA; 30-mg group): ≥ 50%
CCR1 downregulation (CCR1 RNA; following first and last dose of ≥30 mg, cycle 1, CC-90010-GBM-002 (FIG. 6)): ≥ 50%
